Data as given in patent US4698327A, “Novel glycopeptide derivatives” (priority 1986, dated 1987).
Converted amounts (≈) assume the structure as drawn.

Assays:
[1] = system: Haemophilus influenzae C.L.; experiment: MIC, standard agar-dilution assay; assay type: cell-based
[2] = system: Klebsiella pneumoniae X68; experiment: MIC, standard agar-dilution assay; assay type: cell-based
[3] = system: Klebsiella pneumoniae X26; experiment: MIC, standard agar-dilution assay; assay type: cell-based
[4] = system: Staphylococcus epidermidis EPI1; assay type: cell-based; details: agar dilution
[5] = system: Streptococcus faecium ATCC 9790; experiment: MIC, standard agar-dilution assay; assay type: cell-based
[6] = system: Staphylococcus aureus NRRL B313; details: agar dilution
Escherichia coli N10 = experiment: MIC, standard agar-dilution assay; assay type: cell-based
[7] = system: Haemophilus influenzae 76; experiment: MIC, standard agar-dilution assay; assay type: cell-based
[8] = system: Streptococcus pyogenes C203; experiment: MIC, standard agar-dilution assay; assay type: cell-based
[9] = system: Staphylococcus aureus S13E; assay type: cell-based; details: agar dilution
Staphylococcus aureus = Staphylococcus aureus infection in mice; two doses, administered subcutaneously
[10] = system: Streptococcus sp. group D 2041; experiment: MIC, standard agar-dilution assay; assay type: cell-based
[11] = system: Streptococcus pneumoniae Park 1; assay type: cell-based; details: agar dilution
Escherichia coli TEM = experiment: MIC, standard agar-dilution assay; assay type: cell-based
Streptococcus pyogenes = Streptococcus pyogenes infection in mice; two doses, administered subcutaneously
Streptococcus pneumoniae = Streptococcus pneumoniae infection in mice; two doses, administered subcutaneously
[12] = system: Staphylococcus aureus X400; experiment: MIC, standard agar-dilution assay; assay type: cell-based
[13] = system: Klebsiella pneumoniae KAE; experiment: MIC, standard agar-dilution assay; assay type: cell-based
[14] = system: Staphylococcus aureus V41; experiment: MIC, standard agar-dilution assay; assay type: cell-based
Escherichia coli EC14 = experiment: MIC, standard agar-dilution assay; assay type: cell-based
[15] = system: Staphylococcus epidermidis 222; experiment: MIC, standard agar-dilution assay; assay type: cell-based

SMILES | MIC [1] | MIC [2] | MIC [3] | MIC [4] | MIC [5] | MIC [6] | MIC (Escherichia coli N10) | MIC [7] | MIC [8] | MIC [9] | ED50 (Staphylococcus aureus) | MIC [10] | MIC [11] | MIC (Escherichia coli TEM) | ED50 (Streptococcus pyogenes) | ED50 (Streptococcus pneumoniae) | MIC [12] | MIC [13] | MIC [14] | MIC (Escherichia coli EC14) | also measured
CNC(CC(C)C)C(=O)NC1C(=O)NC(CC(N)=O)C(=O)NC2C(=O)NC3C(=O)NC(C(=O)NC(C(=O)O)c4cc(O)cc(O)c4-c4cc3ccc4O)C(O)c3ccc(c(Cl)c3)Oc3cc2cc(c3OC2OC(CO)C(O)C(O)C2OC2CC(C)(NCc3ccc(Br)cc3)C(O)C(C)O2)Oc2ccc(cc2Cl)C1O (stereo not drawn) [Example 80, N^van --( -p-bromobenzyl)vancomycin] | 64 µg/mL (≈ 39.5 µM) | > 128 µg/mL | > 128 µg/mL | 1 µg/mL (≈ 0.618 µM) | 0.25 µg/mL (≈ 0.154 µM) | 0.25 µg/mL (≈ 0.154 µM) | > 128 µg/mL | 64 µg/mL (≈ 39.5 µM) | 0.25 µg/mL (≈ 0.154 µM) | 0.25 µg/mL (≈ 0.154 µM) | 1.34 mg/kg/2 | 1 µg/mL (≈ 0.618 µM) | 0.03 µg/mL (≈ 0.0185 µM) | > 128 µg/mL | 0.78 mg/kg/2 | 0.41 mg/kg/2 | 0.25 µg/mL (≈ 0.154 µM) | > 128 µg/mL | 0.5 µg/mL (≈ 0.309 µM) | > 128 µg/mL | MIC [15]: 0.5 µg/mL (≈ 0.309 µM)
CCCCCCCCCCN(C)C(CC(C)C)C(=O)NC1C(=O)NC(CC(N)=O)C(=O)NC2C(=O)NC3C(=O)NC(C(=O)NC(C(=O)O)c4cc(O)cc(O)c4-c4cc3ccc4O)C(O)c3ccc(c(Cl)c3)Oc3cc2cc(c3OC2OC(CO)C(O)C(O)C2OC2CC(C)(N)C(O)C(C)O2)Oc2ccc(cc2Cl)C1O (stereo not drawn) [Compound 3, N^leu --(n-decyl)vancomycin] | 128 µg/mL (≈ 80.5 µM) | > 128 µg/mL | > 128 µg/mL | 2 µg/mL (≈ 1.26 µM) | 0.5 µg/mL (≈ 0.315 µM) | 0.5 µg/mL (≈ 0.315 µM) | > 128 µg/mL | > 128 µg/mL | 0.5 µg/mL (≈ 0.315 µM) | 0.5 µg/mL (≈ 0.315 µM) | > 5 mg/kg/2 | 1 µg/mL (≈ 0.629 µM) | 0.5 µg/mL (≈ 0.315 µM) | > 128 µg/mL | 4.6 mg/kg/2 | 3.6 mg/kg/2 | 0.5 µg/mL (≈ 0.315 µM) | > 128 µg/mL | 0.5 µg/mL (≈ 0.315 µM) | > 128 µg/mL | MIC [15]: 1 µg/mL (≈ 0.629 µM)
